Experimental findings from patent US11434220B2, “Use of physiological cooling active ingredients, and compositions comprising such active ingredients” (BASF SE, priority 2017, dated 2022) are described below.

pEC50: −log10 of the molar value.

Experiment [1] has as its system trained panelists. Description: Sensory assessment: cooling intensity of inventive amides in 5% sugar solution compared to FEMA 4809. The experiment is classed as in vivo, human. The following applies: scale 1 (very weak) to 9 (very strong), n=10 to 11. The method, then:
[…] What were assessed here were initial cooling intensity, overall cooling intensity and long-lasting action on a scale from 1 (very weak) to 9 (very strong).

Experiment [2] deals with T1, human TRPM8 receptor (Homo sapiens, UniProt Q7Z2W7).
T1 construct: expressed in transfected cells
T1 sequence (Q7Z2W7 whole entry): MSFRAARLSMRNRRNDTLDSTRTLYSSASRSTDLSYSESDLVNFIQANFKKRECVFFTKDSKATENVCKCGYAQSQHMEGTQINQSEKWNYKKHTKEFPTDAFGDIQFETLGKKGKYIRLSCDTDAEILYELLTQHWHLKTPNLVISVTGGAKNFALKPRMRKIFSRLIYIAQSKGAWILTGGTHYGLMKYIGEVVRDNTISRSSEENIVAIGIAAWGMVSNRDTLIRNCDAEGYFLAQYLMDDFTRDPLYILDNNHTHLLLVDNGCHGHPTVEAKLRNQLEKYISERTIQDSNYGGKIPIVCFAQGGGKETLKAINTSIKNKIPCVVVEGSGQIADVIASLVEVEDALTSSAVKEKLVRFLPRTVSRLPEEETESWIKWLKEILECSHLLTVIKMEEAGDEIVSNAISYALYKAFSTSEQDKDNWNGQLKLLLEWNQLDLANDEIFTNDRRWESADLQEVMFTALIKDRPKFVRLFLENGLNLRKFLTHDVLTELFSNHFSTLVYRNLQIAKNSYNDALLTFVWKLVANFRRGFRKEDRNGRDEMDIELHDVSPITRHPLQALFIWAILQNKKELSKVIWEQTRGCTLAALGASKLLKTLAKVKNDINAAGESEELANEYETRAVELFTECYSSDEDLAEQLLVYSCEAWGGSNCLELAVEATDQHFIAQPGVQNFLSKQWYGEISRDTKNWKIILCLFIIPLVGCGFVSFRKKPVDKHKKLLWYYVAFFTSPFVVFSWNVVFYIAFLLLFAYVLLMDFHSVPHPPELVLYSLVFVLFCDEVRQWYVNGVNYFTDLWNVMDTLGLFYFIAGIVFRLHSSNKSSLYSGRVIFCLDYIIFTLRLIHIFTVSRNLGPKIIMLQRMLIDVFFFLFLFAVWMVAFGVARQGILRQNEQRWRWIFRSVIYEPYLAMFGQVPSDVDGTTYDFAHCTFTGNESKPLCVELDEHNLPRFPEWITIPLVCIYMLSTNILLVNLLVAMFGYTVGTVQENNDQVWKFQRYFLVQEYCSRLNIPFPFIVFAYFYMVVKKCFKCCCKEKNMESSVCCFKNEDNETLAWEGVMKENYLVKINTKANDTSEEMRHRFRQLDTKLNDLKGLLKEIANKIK
In words: Assay for TRPM8 modulators: Ca2+ fluorescence (Fluo-4) in HEK293-TRPM8 test cells. Type of experiment: cell-based. The following applies: HEK293 cells stably transfected with human TRPM8, agonism, triplicates, 0.1-200 μM; read-out: Activity In vitro assay (EC50). The source says: The test cell system produced, with human TRPM8 DNA, was a stably transfected HEK293 cell line. Preference is given here to HEK293 which, via the plasmid introduced, offers the option of induction of TRPM8 expression by means of tetracycline.
The agonism or antagonism of the receptor can be quantified by means of a Ca^2+-sensitive dye (e.g. FURA, Fluo-4 etc.). Agonists on their own result in an increase in the Ca^2+ signal; antagonists in the presence of menthol, for example, result in a reduction in the Ca^2+ signal (in each case detected by means of the Fluo-4 dye which is caused to have different fluorescence properties by Ca^2+).
First of all, in a manner known per se, a fresh culture of transformed HEK cells is produced in cell culture bottles. The HEK293-TRPM8 test cells are detached from the cell culture bottles by means of trypsin and 40 000 cells/well are sown with 100 μl of medium in 96-hole plates (Greiner #655948 poly-D-lysine-coated). For induction of the TRPM8 receptor, tetracycline is added to the growth medium (DMEM/HG, 10% FCS tetracycline-free, 4 mM L-glutamine, 15 μg/mL blasticidin, 100 μg/mL hygromycin B, 1 μg/mL tetracycline). The next day, the cells are laden with Fluo-4AM dye and the test is conducted.
The test substances are used in the assay in triplicates in concentrations of 0.1-200 μM. Normally, the compounds are kept in DMSO solutions and diluted down for the assay to a maximum DMSO concentration of 2%.

For experiment [3], the system named is oral cavity of trained panelists. In words: Time-intensity profile of cooling after 40 s mouth rinse with sample solution. Type of experiment: in vivo, human. The following applies: for Cooling intensity: 40 s mouth rinse. The method, then: To establish a time-intensity profile, the oral cavity of trained panelists (n=8 to 11) was rinsed for 40 seconds with a mouthful of a sample solution (2 ppm of FEMA 4809 or 50 ppm of FEMA 4496 or 50 ppm of 1) to 5)). Subsequently, the cooling intensity perceived was assessed at defined time intervals using a scale.

In experiment [1] (20 ppm in 5% sugar solution), `O=C(/C=C/c1ccc2c(c1)OCO2)N(CC1CCCO1)c1ccccc1` (stereo not drawn) [(E)-3-(1,3-benzodioxol-5-yl)-N-phenyl-N-(tetrahydrofuran-2-ylmethyl)prop-2-enamide] returned an Initial cooling effect of 3.1, a Long-lasting action of 5.3 and an Overall cooling intensity of 5.0. In addition, the pEC50 (as a rule, the negative decadic logarithm of the EC50, by convention in mol/L) in experiment [2] is 5.30.
For the molecule `COc1ccc(/C=C/C(=O)N(CC2CCCO2)c2ccccc2)cc1` (stereo not drawn) [(E)-3-(4-methoxyphenyl)-N-phenyl-N-(tetrahydrofuran-2-ylmethyl)prop-2-enamide], in experiment [2], the pEC50 is 4.60.
On the same count and under the same terms, as for `Cc1ccc(/C=C/C(=O)N(CC2CCCO2)c2ccccc2)cc1` (stereo not drawn) [(E)-N-phenyl-3-(p-tolyl)-N-(tetrahydrofuran-2-ylmethyl)prop-2-enamide], the figure is 5.30; as for `COc1ccc(OCC(=O)N(CCSC)c2ccccc2)cc1` [2-(4-methoxyphenoxy)-N-(2-methylsulfanylethyl)-N-phenyl-acetamide], 4.52.
With `Cc1ccc(OCC(=O)N(CC2CCCO2)c2cc[nH]n2)cc1` (stereo not drawn) [2-(4-methylphenoxy)-N-(1H-pyrazol-3-yl)-N-(tetrahydrofuran-2-ylmethyl)acetamide], the pEC50 in experiment [2] is 5.00.
Still for that read-out and setting: the same measure for `COc1ccc(/C=C/C(=O)N(CC2CCCO2)c2cc[nH]n2)cc1` (stereo not drawn) [(E)-3-(4-methoxyphenyl)-N-(1H-pyrazol-3-yl)-N-(tetrahydrofuran-2-ylmethyl)prop-2-enamide]: 4.60; for `COc1ccc(/C=C/C(=O)N(c2ccsc2)C2CCCCC2)cc1` [(E)-N-cyclohexyl-3-(4-methoxyphenyl)-N-(3-thienyl)prop-2-enamide]: 4.60.
On to `O=C(/C=C/c1ccccc1)N(c1ccccn1)C1CCSC1` (stereo not drawn) [(E)-3-phenyl-N-(2-pyridyl)-N-tetrahydrothiophen-3-yl-prop-2-enamide], for which, in experiment [1] (20 ppm in 5% sugar solution), the Initial cooling effect is listed as 5.3, the Long-lasting action was 7.8 and the Overall cooling intensity is 7.8. Further, the pEC50 in experiment [2] was 4.52.
`Cc1ccc(OCC(=O)N(c2ccsc2)C2CCCCC2)cc1` [N-cyclohexyl-2-(4-methylphenoxy)-N-(3-thienyl)acetamide]: the negative-log EC50 (pEC50) in experiment [2] is 4.52.
On the same count and under the same terms, the same measure for `Cc1ccc(OCC(=O)N(c2ccccc2)C2CCSC2)cc1` (stereo not drawn) [2-(4-methylphenoxy)-N-phenyl-N-tetrahydrothiophen-3-yl-acetamide]: 4.90; for `COc1ccc(/C=C/C(=O)N(CCSC)c2ccccc2)cc1` [(E)-3-(4-methoxyphenyl)-N-(2-methylsulfanylethyl)-N-phenyl-prop-2-enamide]: 4.60; for `Cc1ccc(/C=C/C(=O)N(CC2CCCO2)c2cc[nH]n2)cc1` (stereo not drawn) [(E)-3-(p-tolyl)-N-(1H-pyrazol-3-yl)-N-(tetrahydrofuran-2-ylmethyl)prop-2-enamide]: 5.00.
In experiment [1] (20 ppm in 5% sugar solution), `CSCCN(C(=O)COc1ccc(C)cc1)c1ccccc1` [2-(4-methylphenoxy)-N-(2-methylsulfanylethyl)-N-phenyl-acetamide] yielded an Initial cooling effect of 2.2, a Long-lasting action of 2.8 and an Overall cooling intensity of 2.8. In experiment [2], the pEC50 was 4.60.
On to `Cc1ccc(OCC(=O)N(Cc2cccs2)c2ccn[nH]2)cc1` [FEMA 4809], for which the Initial cooling effect in experiment [1] (2 ppm in 5% sugar solution) worked out at 3.9. This molecule came in with a Long-lasting action in experiment [1] (2 ppm in 5% sugar solution) of 7.5. Further, in experiment [1] (2 ppm in 5% sugar solution), the Overall cooling intensity is given as 7.3. Further, the Cooling intensity in experiment [3] (time 0 sec; 2 ppm FEMA 4809, 50 ppm FEMA 4496, 50 ppm 1) to 5)) was found to be 0; in experiment [3] (time 40 sec; 2 ppm FEMA 4809, 50 ppm FEMA 4496, 50 ppm 1) to 5)), 2.7; in experiment [3] (time 70 sec; 2 ppm FEMA 4809, 50 ppm FEMA 4496, 50 ppm 1) to 5)), 2.8; in experiment [3] (time 100 sec; 2 ppm FEMA 4809, 50 ppm FEMA 4496, 50 ppm 1) to 5)) it was 2.5; in experiment [3] (time 130 sec; 2 ppm FEMA 4809, 50 ppm FEMA 4496, 50 ppm 1) to 5)), 2.6; in experiment [3] (time 160 sec; 2 ppm FEMA 4809, 50 ppm FEMA 4496, 50 ppm 1) to 5)) it was 2.6. Also, the Cooling intensity in experiment [3] (time 190 sec; 2 ppm FEMA 4809, 50 ppm FEMA 4496, 50 ppm 1) to 5)) is given as 2.7; in experiment [3] (time 220 sec; 2 ppm FEMA 4809, 50 ppm FEMA 4496, 50 ppm 1) to 5)), 2.8; in experiment [3] (time 250 sec; 2 ppm FEMA 4809, 50 ppm FEMA 4496, 50 ppm 1) to 5)) it was 2.7; in experiment [3] (time 280 sec; 2 ppm FEMA 4809, 50 ppm FEMA 4496, 50 ppm 1) to 5)), 2.8; in experiment [3] (time 310 sec; 2 ppm FEMA 4809, 50 ppm FEMA 4496, 50 ppm 1) to 5)) it was 2.9; in experiment [3] (time 340 sec; 2 ppm FEMA 4809, 50 ppm FEMA 4496, 50 ppm 1) to 5)), 2.8. For the same molecule, the Cooling intensity worked out at 2.6 in experiment [3] (time 640 sec; 2 ppm FEMA 4809, 50 ppm FEMA 4496, 50 ppm 1) to 5)); 2.6 in experiment [3] (time 940 sec; 2 ppm FEMA 4809, 50 ppm FEMA 4496, 50 ppm 1) to 5)); 2.1 in experiment [3] (time 1240 sec; 2 ppm FEMA 4809, 50 ppm FEMA 4496, 50 ppm 1) to 5)). In experiment [3] (time-intensity profile, with respect to WS3), the “Onset of cooling activity” value is listed as “distinctly retarded onset of the cooling action”.
For the molecule `COc1ccc(/C=C/C(=O)N(c2ccccc2)C2CCOC2)cc1` (stereo not drawn) [(E)-3-(4-methoxyphenyl)-N-phenyl-N-tetrahydrofuran-3-yl-prop-2-enamide], in experiment [2], the negative logarithm of the EC50 (pEC50) is 4.90.
On the same count and under the same terms, as for `CCN(CCSC)C(=O)/C=C/c1ccc(C)cc1` [(E)-N-ethyl-N-(2-methylsulfanylethyl)-3-(p-tolyl)prop-2-enamide], the figure is 5.00.
Regarding `Cc1ccc(OCC(=O)N(c2ccccc2)C2CCOC2)cc1` (stereo not drawn) [2-(4-methylphenoxy)-N-phenyl-N-tetrahydrofuran-3-yl-acetamide], the pEC50 in experiment [2] was 4.60.
In experiment [1] (20 ppm in 5% sugar solution), `CSCCN(C(=O)/C=C/c1ccc2c(c1)OCO2)c1ccccc1` [(E)-3-(1,3-benzodioxol-5-yl)-N-(2-methylsulfanylethyl)-N-phenyl-prop-2-enamide] showed an Initial cooling effect of 2.7, a Long-lasting action of 4.7 and an Overall cooling intensity of 4.7.
In experiment [1] (2 ppm in 5% sugar solution), `CSCCN(C(=O)/C=C/c1ccc2c(c1)OCO2)c1ccccn1` [(E)-3-(1,3-benzodioxol-5-yl)-N-(2-methylsulfanylethyl)-N-(2-pyridyl)prop-2-enamide] registered an Initial cooling effect of 3.4, a Long-lasting action of 4.3 and an Overall cooling intensity of 4.6. In experiment [1] (20 ppm in 5% sugar solution), this molecule registered an Initial cooling effect of 6.2, a Long-lasting action of 7.5 and an Overall cooling intensity of 7.8.
As to `COc1ccc(OCC(=O)N(c2cc[nH]n2)C2CCSC2)cc1` (stereo not drawn) [2-(4-methoxyphenoxy)-N-(1H-pyrazol-3-yl)-N-tetrahydrothiophen-3-yl-acetamide], the pEC50 in experiment [2] is 5.00.
As for `O=C(/C=C/c1ccc2c(c1)OCO2)N(CC1CCCO1)c1cc[nH]n1` (stereo not drawn) [(E)-3-(1,3-benzodioxol-5-yl)-N-(1H-pyrazol-3-yl)-N-(tetrahydrofuran-2-ylmethyl)prop-2-enamide], the pEC50 in experiment [2] is 4.82.
For the molecule `O=C(/C=C/c1ccc2c(c1)OCO2)N(CC1CCCS1)c1cc[nH]n1` (stereo not drawn) [(E)-3-(1,3-benzodioxol-5-yl)-N-(1H-pyrazol-3-yl)-N-(tetrahydrothiophen-2-ylmethyl)prop-2-enamide], the pEC50 in experiment [2] is 5.30.
The same measure, in the same setting: as for `CCN(CCCSC)C(=O)/C=C/c1ccc2c(c1)OCO2` [(E)-3-(1,3-benzodioxol-5-yl)-N-ethyl-N-(3-methylsulfanylpropyl)prop-2-enamide], the figure is 4.52.
In the case of `CSCCN(C(=O)/C=C/c1ccc2c(c1)OCO2)c1cc[nH]n1` [(E)-3-(1,3-benzodioxol-5-yl)-N-(2-methylsulfanylethyl)-N-(1H-pyrazol-3-yl)prop-2-enamide], in experiment [1] (5 ppm in 5% sugar solution), the Initial cooling effect is on record as 3.1, the Long-lasting action is 4.6 and the Overall cooling intensity is reported as 4.8. In addition, in experiment [1] (20 ppm in 5% sugar solution), the Initial cooling effect worked out at 3.7, the Long-lasting action amounted to 6.6 and the Overall cooling intensity turned out to be 6.6.
